Patent US5776957A, “Nornicotine enantiomers for use as a treatment for dopamine related conditions and disease states” (The University of Kentucky Research Foundation, priority 1996, dated 1998)
Read-outs that look alike come from different tables or passages of the source.

Tests used:
[1] = test system: mouse striatal synaptosomes; settings: Grady et al., cited from earlier work
[2] = test system: rat and mouse striatal synaptosomes; settings: Rapier, El-Bizri, Rowell; cited from earlier work
[3] = test system: rat striatal slices; settings: 0.1-100 μM, 15 min exposure, Dwoskin et al., 1993, cited from earlier work
[4] = cited from earlier work
[5] = hemodynamic function in conscious animals; type: in vivo; settings: behaviorally active doses

Compound | EC50 ([1]; 1992, read-out: EC50 for NIC-stimulated, MEC-sensitive [3H]overflow) | EC50 ([1]; 1994, 0.1-30 μM, 10 min exposure, read-out: EC50, peak DA release) | plateau concentration of concentration-response curve [2] | endogenous DA release [3] | endogenous DA release ([3]; listed as S(-) enantiomer of norNIC) | detection in urine of human smokers [4] | effect on hemodynamic function [5]
CN1CCC[C@H]1c1cccnc1 [S(-) nicotine] | 480 nM | 330 nM | 1 to 100 µM | – | – | – | –
c1cncc([C@@H]2CCCN2)c1 [S(-) nornicotine, S-(-) nornicotine] | – | – | – | concentration-dependent and Ca+-dependent increase | concentration-dependent and Ca^++ -dependent increase | detectable in the urine of human smokers | no adverse effective on hemodynamic function
